Among the data in BindingDB's records for doi:10.1021/jm00087a006 (University of Michigan, 1992) are Ki values, retold here.

Positions of bridges follow the written chain, without caps; N, C: chain ends. Non-standard residues stand in square brackets, D forms with d. Residues, ends and D or L forms follow the SMILES beside them. Phe(4-NO2) = N[C@@H](Cc1ccc([N+](=O)[O-])cc1)C(=O)O; Phe(4-tBu) = CC(C)(C)c1ccc(C[C@H](N)C(=O)O)cc1; Phe(4-Cl) = N[C@@H](Cc1ccc(Cl)cc1)C(=O)O; Phe(3-F) = N[C@@H](Cc1cccc(F)c1)C(=O)O; Phe(4-F) = N[C@@H](Cc1ccc(F)cc1)C(=O)O; Phe(4-Me) = Cc1ccc(C[C@H](N)C(=O)O)cc1; Phe(2-F) = N[C@@H](Cc1ccccc1F)C(=O)O; mTyr = N[C@@H](Cc1cccc(O)c1)C(=O)O; Pen = CC(C)(S)[C@H](N)C(=O)O

A short description of assay [1]: Compound was tested for the inhibition of [3H]- [D-Pen2, D-Pen5]-enkephalin (DPDPE) binding to Opioid receptor delta 1 in guinea pig brain homogenates.
Test in assay [2]: as above
This is another data set of the same source.

Assay [3] can be described thus: Compound was tested for the inhibition of [3H]- [D-Pen2, D-Pen5]-enkephalin (DPDPE) binding to opioid receptor delta in guinea pig brain homogenates.

Broadly, the Ki is the equilibrium dissociation constant of an inhibitor or competing ligand from its target. Low readings indicate a stronger hold on the target, high ones a looser hold on the target. With `CC1(C)SSC[C@H](NC(=O)[C@@H](N)Cc2ccc(O)cc2)C(=O)N[C@@H](Cc2ccc(O)cc2)C(=O)N[C@@H]1C(=O)O` (H-YCY[Pen]-OH; disulfide 2-4), the Ki in assay [1] worked out at 26 nM. `CC1(C)SSC[C@H](NC(=O)[C@@H](N)Cc2ccc(O)cc2)C(=O)N[C@@H](Cc2ccccc2F)C(=O)N[C@@H]1C(=O)O` (H-YC[Phe(2-F)][Pen]-OH; disulfide 2-4) came in with a Ki in assay [2] of 3.3 nM. `CC1(C)SSC[C@H](NC(=O)[C@@H](N)Cc2ccc(O)cc2)C(=O)N[C@@H](Cc2cccc(F)c2)C(=O)N[C@@H]1C(=O)O` (H-YC[Phe(3-F)][Pen]-OH; disulfide 2-4) gave a Ki in assay [2] of 2.9 nM. On the same count and under the same terms, to `CC1(C)SSC[C@H](NC(=O)[C@@H](N)Cc2ccc(O)cc2)C(=O)N[C@@H](Cc2ccc(Cl)cc2)C(=O)N[C@@H]1C(=O)O` (H-YC[Phe(4-Cl)][Pen]-OH; disulfide 2-4) belongs 0.98 nM.

Consider `CC1(C)SSC[C@H](NC(=O)[C@@H](N)Cc2ccc(O)cc2)C(=O)N[C@@H](Cc2ccc(F)cc2)C(=O)N[C@@H]1C(=O)O` (H-YC[Phe(4-F)][Pen]-OH; disulfide 2-4), for which, in assay [1], the affinity, expressed as Ki, was 1.1 nM.

As for `Cc1ccc(C[C@@H]2NC(=O)[C@@H](NC(=O)[C@@H](N)Cc3ccc(O)cc3)CSSC(C)(C)[C@@H](C(=O)O)NC2=O)cc1` (H-YC[Phe(4-Me)][Pen]-OH; disulfide 2-4), affinity in assay [2] was put at a Ki of 5.4 nM. Regarding `CC1(C)SSC[C@H](NC(=O)[C@@H](N)Cc2ccc(O)cc2)C(=O)N[C@@H](Cc2ccc([N+](=O)[O-])cc2)C(=O)N[C@@H]1C(=O)O` (H-YC[Phe(4-NO2)][Pen]-OH; disulfide 2-4), the affinity in assay [1], expressed as Ki, was 1.7 nM.

Turning to `CC(C)(C)c1ccc(C[C@@H]2NC(=O)[C@@H](NC(=O)[C@@H](N)Cc3ccc(O)cc3)CSSC(C)(C)[C@@H](C(=O)O)NC2=O)cc1` (H-YC[Phe(4-tBu)][Pen]-OH; disulfide 2-4), the results for the inhibition constant (Ki) in assay [3] and in assay [1] were 37 nM and 648 nM, respectively. `CC1(C)SSC[C@H](NC(=O)[C@@H](N)Cc2ccc(O)cc2)C(=O)N[C@@H](Cc2cccc(O)c2)C(=O)N[C@@H]1C(=O)O` (H-YC[mTyr][Pen]-OH; disulfide 2-4): the Ki amounted to 9.3 nM in assay [3] and 148 nM in assay [1].
